# Measured values as given in PubChem BioAssay AID270 (DTP/NCI, 2004).
# Values joined by “and” are separate entries in the source; they are usually repeats but may differ in a detail not shown here. Identical values can stand only once. Records with an inconclusive call do not appear.
# Tested on: BDF1 mice, s.c. Lewis lung carcinoma, T/C %
# Assay: NCI In Vivo Anticancer Drug Screen. Data for tumor model Lewis Lung Carcinoma (subcutaneous) in B6D2F1 (BDF1) mice
# Summary of the method: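 Readout: survival or tumor size, expressed as treated (T) over vehicle control (C). Transplantable tumor implanted in mice; compound given to the treated group.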
# [1] = endpoint: median survival time, dose: 1.25 mg/kg/injection, schedule: Q01DX009 (ip), vehicle: Klucel (hydroxypropylcellulose) (HPC), higher = longer survival
# [2] = endpoint: median survival time, dose: 2.5 mg/kg/injection, schedule: Q01DX009 (ip), vehicle: Klucel (hydroxypropylcellulose) (HPC), higher = longer survival
compound,measurement,setting,value
O=CC(NC(=O)N(CCCl)N=O)C(O)C(O)C(O)CO (stereo not given),T/C,"endpoint: median survival time, dose: 1.25 mg/kg/injection, schedule: Q01DX009 (ip), vehicle: saline, higher = longer survival",121 % of control
same,T/C,"endpoint: median survival time, dose: 2.5 mg/kg/injection, schedule: Q01DX009 (ip), vehicle: saline, higher = longer survival",112 % of control
same,T/C,"endpoint: median survival time, dose: 3.3 mg/kg/injection, schedule: Q01DX009 (ip), vehicle: saline, higher = longer survival",105 % of control
same,T/C,"endpoint: median survival time, dose: 4.9 mg/kg/injection, schedule: Q01DX009 (ip), vehicle: saline, higher = longer survival",102 % of control
same,T/C,"endpoint: median survival time, dose: 5.0 mg/kg/injection, schedule: Q01DX009 (ip), vehicle: saline, higher = longer survival",118 % of control
same,T/C,"endpoint: median survival time, dose: 7.4 mg/kg/injection, schedule: Q01DX009 (ip), vehicle: saline, higher = longer survival",96 % of control
same,T/C,"endpoint: median survival time, dose: 10.0 mg/kg/injection, schedule: Q01DX001 (ip), vehicle: Klucel (hydroxypropylcellulose) (HPC), higher = longer survival",88 % of control and 109 % of control
same,T/C,"endpoint: median survival time, dose: 10.0 mg/kg/injection, schedule: Q01DX009 (ip), vehicle: saline, higher = longer survival",111 % of control
same,T/C,"endpoint: median survival time, dose: 12.0 mg/kg/injection, schedule: Q04DX003 (ip), vehicle: saline, higher = longer survival",93 % of control
same,T/C,"endpoint: median survival time, dose: 16.0 mg/kg/injection, schedule: Q01DX001 (ip), vehicle: saline, higher = longer survival",110 % of control
same,T/C,"endpoint: median survival time, dose: 18.0 mg/kg/injection, schedule: Q04DX003 (ip), vehicle: saline, higher = longer survival",108 % of control
same,T/C,"endpoint: median survival time, dose: 20.0 mg/kg/injection, schedule: Q01DX001 (ip), vehicle: Klucel (hydroxypropylcellulose) (HPC), higher = longer survival",95 % of control
same,T/C,"endpoint: median survival time, dose: 24.0 mg/kg/injection, schedule: Q01DX001 (ip), vehicle: saline, higher = longer survival",96 % of control
same,T/C,"endpoint: median survival time, dose: 36.0 mg/kg/injection, schedule: Q01DX001 (ip), vehicle: saline, higher = longer survival",98 % of control
CC1=CC2=C(C=O)C(=O)[C@](C)(O)[C@@H](O)C2=CO1,T/C,"endpoint: median survival time, dose: 1.56 mg/kg/injection, schedule: Q01DX009 (ip), vehicle: saline with Tween-80, higher = longer survival",115 % of control
same,T/C,"endpoint: median survival time, dose: 3.13 mg/kg/injection, schedule: Q01DX009 (ip), vehicle: saline with Tween-80, higher = longer survival",153 % of control
same,T/C,"endpoint: median survival time, dose: 6.25 mg/kg/injection, schedule: Q01DX009 (ip), vehicle: saline with Tween-80, higher = longer survival",89 % of control and 120 % of control
same,T/C,"endpoint: median survival time, dose: 12.5 mg/kg/injection, schedule: Q01DX009 (ip), vehicle: saline with Tween-80, higher = longer survival",109 % of control
same,T/C,"endpoint: median survival time, dose: 25.0 mg/kg/injection, schedule: Q01DX009 (ip), vehicle: saline with Tween-80, higher = longer survival",106 % of control
CNc1nc(N(C)C)nc(N(C)C)n1,T/C,"endpoint: median survival time, dose: 67.0 mg/kg/injection, schedule: Q01DX009 (ip), vehicle: water, higher = longer survival",91 % of control
same,T/C,"endpoint: median survival time, dose: 100.0 mg/kg/injection, schedule: Q01DX009 (ip), vehicle: water, higher = longer survival",116 % of control
NC(Cc1c[nH]c2ccc(N(CCCl)CCCl)cc12)C(=O)O (stereo not given),T/C,"endpoint: mean tumor weight, dose: 0.13 mg/kg/injection, schedule: Q01DX011 (ip), vehicle: saline, higher = larger tumour",90 % of control
same,T/C,"endpoint: mean tumor weight, dose: 0.5 mg/kg/injection, schedule: Q01DX011 (ip), vehicle: saline, higher = larger tumour",90 % of control
same,T/C,"endpoint: mean tumor weight, dose: 1.0 mg/kg/injection, schedule: Q01DX011 (ip), vehicle: saline, higher = larger tumour",98 % of control
same,T/C,"endpoint: mean tumor weight, dose: 2.0 mg/kg/injection, schedule: Q01DX011 (ip), vehicle: saline, higher = larger tumour",102 % of control
C/C=C1\CNC2Cc3c([nH]c4ccccc34)C(=O)CC1C2C(=O)OC (stereo not given),T/C,"endpoint: mean tumor weight, dose: 25.0 mg/kg/injection, schedule: Q01DX011 (ip), vehicle: saline, higher = larger tumour",88 % of control
same,T/C,"endpoint: mean tumor weight, dose: 50.0 mg/kg/injection, schedule: Q01DX011 (ip), vehicle: saline, higher = larger tumour",97 % of control
same,T/C,"endpoint: mean tumor weight, dose: 100.0 mg/kg/injection, schedule: Q01DX011 (ip), vehicle: saline, higher = larger tumour",84 % of control
COc1ccc(CN2CCCN(Cc3ccc(OC)cc3)C2c2ccc(Cl)cc2Cl)cc1,T/C,"endpoint: mean tumor weight, dose: 74.0 mg/kg/injection, schedule: Q01DX011 (ip), vehicle: other, higher = larger tumour",119 % of control
same,T/C,"endpoint: mean tumor weight, dose: 166.0 mg/kg/injection, schedule: Q01DX011 (ip), vehicle: other, higher = larger tumour",111 % of control
N=C(N)Sc1cc(O)ccc1O,T/C,"endpoint: median survival time, dose: 12.5 mg/kg/injection, schedule: Q01DX009 (ip), vehicle: other, higher = longer survival",102 % of control
same,T/C,"endpoint: median survival time, dose: 18.75 mg/kg/injection, schedule: Q01DX009 (ip), vehicle: saline, higher = longer survival",120 % of control
same,T/C,"endpoint: median survival time, dose: 25.0 mg/kg/injection, schedule: Q01DX009 (ip), vehicle: other, higher = longer survival",103 % of control
same,T/C,"endpoint: median survival time, dose: 37.5 mg/kg/injection, schedule: Q01DX009 (ip), vehicle: saline, higher = longer survival",92 % of control
same,T/C,"endpoint: median survival time, dose: 50.0 mg/kg/injection, schedule: Q01DX009 (ip), vehicle: other, higher = longer survival",93 % of control
same,T/C,"endpoint: median survival time, dose: 100.0 mg/kg/injection, schedule: Q01DX009 (ip), vehicle: other, higher = longer survival",100 % of control
same,T/C,"endpoint: median survival time, dose: 200.0 mg/kg/injection, schedule: Q01DX009 (ip), vehicle: other, higher = longer survival",93 % of control
same,T/C,"endpoint: median survival time, dose: 300.0 mg/kg/injection, schedule: Q01DX009 (ip), vehicle: saline, higher = longer survival",91 % of control
CN(CC(=O)O)C(=N)N,T/C,"endpoint: mean tumor weight, dose: 250.0 mg/kg/injection, schedule: Q01DX011 (ip), vehicle: saline, higher = larger tumour",57 % of control
same,T/C,"endpoint: mean tumor weight, dose: 500.0 mg/kg/injection, schedule: Q01DX011 (ip), vehicle: saline, higher = larger tumour",53 % of control
same,T/C,"endpoint: mean tumor weight, dose: 1000.0 mg/kg/injection, schedule: Q01DX011 (ip), vehicle: saline, higher = larger tumour",67 % of control
COc1cc(NS(C)(=O)=O)ccc1Nc1c2ccc(Cl)cc2nc2c(OC)cccc12,T/C,"endpoint: median survival time, dose: 2.3 mg/kg/injection, schedule: Q01DX009 (ip), vehicle: other, higher = longer survival",118 % of control
O=C(O)CCCc1ccc(N(CCCl)CCCl)cc1,T/C,"endpoint: mean tumor weight, dose: 3.13 mg/kg/injection, schedule: Q01DX011 (ip), vehicle: saline, higher = larger tumour",66 % of control
same,T/C,"endpoint: mean tumor weight, dose: 6.25 mg/kg/injection, schedule: Q01DX011 (ip), vehicle: saline, higher = larger tumour",54 % of control
same,T/C,"endpoint: mean tumor weight, dose: 7.5 mg/kg/injection, schedule: Q01DX011 (ip), vehicle: carboxymethylcellulose (CMC), higher = larger tumour",55 % of control
same,T/C,"endpoint: mean tumor weight, dose: 12.5 mg/kg/injection, schedule: Q01DX011 (ip), vehicle: saline, higher = larger tumour",26 % of control
same,T/C,"endpoint: median survival time, dose: 1.0 mg/kg/injection, schedule: Q01DX009 (ip), vehicle: saline with Tween-80, higher = longer survival",113 % of control
same,T/C,"endpoint: median survival time, dose: 2.0 mg/kg/injection, schedule: Q01DX009 (ip), vehicle: saline with Tween-80, higher = longer survival",101 % of control and 124 % of control
same,T/C,"endpoint: median survival time, dose: 4.0 mg/kg/injection, schedule: Q01DX001 (ip), vehicle: saline with Tween-80, higher = longer survival",94 % of control
same,T/C,"endpoint: median survival time, dose: 8.0 mg/kg/injection, schedule: Q01DX001 (ip), vehicle: saline with Tween-80, higher = longer survival",112 % of control
same,T/C,"endpoint: median survival time, dose: 8.0 mg/kg/injection, schedule: Q01DX009 (ip), vehicle: saline with Tween-80, higher = longer survival",110 % of control and 114 % of control
same,T/C,"endpoint: median survival time, dose: 16.0 mg/kg/injection, schedule: Q01DX001 (ip), vehicle: saline with Tween-80, higher = longer survival",107 % of control
same,T/C,"endpoint: median survival time, dose: 32.0 mg/kg/injection, schedule: Q01DX001 (ip), vehicle: saline with Tween-80, higher = longer survival",89 % of control
CCOC(=O)NP(=O)(N1CC1)N1CC1,T/C,"endpoint: mean tumor weight, dose: 2.5 mg/kg/injection, schedule: Q01DX011 (ip), vehicle: saline, higher = larger tumour",61 % of control and 75 % of control
same,T/C,"endpoint: mean tumor weight, dose: 5.0 mg/kg/injection, schedule: Q01DX011 (ip), vehicle: saline, higher = larger tumour",35 % of control and 56 % of control
O=NN(CCCl)C(=O)Nc1ccc(Br)cc1,T/C,[1],97 % of control
same,T/C,[2],101 % of control
same,T/C,"endpoint: median survival time, dose: 5.0 mg/kg/injection, schedule: Q01DX009 (ip), vehicle: Klucel (hydroxypropylcellulose) (HPC), higher = longer survival",88 % of control
same,T/C,"endpoint: median survival time, dose: 9.4 mg/kg/injection, schedule: Q01DX009 (ip), vehicle: Klucel (hydroxypropylcellulose) (HPC), higher = longer survival",108 % of control
same,T/C,"endpoint: median survival time, dose: 10.0 mg/kg/injection, schedule: Q01DX009 (ip), vehicle: Klucel (hydroxypropylcellulose) (HPC), higher = longer survival",102 % of control
COc1ccc(/C=C/c2ccc3ccccc3[n+]2C)c(OC)c1OC,T/C,"endpoint: median survival time, dose: 0.31 mg/kg/injection, schedule: Q01DX009 (ip), vehicle: Klucel (hydroxypropylcellulose) (HPC), higher = longer survival",117 % of control
same,T/C,"endpoint: median survival time, dose: 0.62 mg/kg/injection, schedule: Q01DX009 (ip), vehicle: Klucel (hydroxypropylcellulose) (HPC), higher = longer survival",108 % of control
same,T/C,[1],107 % of control
same,T/C,[2],89 % of control and 92 % of control
O=C1NC2(CCCCC2)C(=O)N1CCN(CCCl)CCCl,T/C,"endpoint: median survival time, dose: 1.5 mg/kg/injection, schedule: Q01DX009 (ip), vehicle: Klucel (hydroxypropylcellulose) (HPC), higher = longer survival",98 % of control
same,T/C,"endpoint: median survival time, dose: 1.5 mg/kg/injection, schedule: Q01DX009 (ip), vehicle: saline, higher = longer survival",91 % of control
same,T/C,"endpoint: median survival time, dose: 1.56 mg/kg/injection, schedule: Q01DX009 (ip), vehicle: saline, higher = longer survival",87 % of control and 93 % of control
same,T/C,"endpoint: median survival time, dose: 3.0 mg/kg/injection, schedule: Q01DX009 (ip), vehicle: Klucel (hydroxypropylcellulose) (HPC), higher = longer survival",104 % of control
same,T/C,"endpoint: median survival time, dose: 3.0 mg/kg/injection, schedule: Q01DX009 (ip), vehicle: saline, higher = longer survival",89 % of control
same,T/C,"endpoint: median survival time, dose: 3.12 mg/kg/injection, schedule: Q01DX009 (ip), vehicle: saline, higher = longer survival",100 % of control
same,T/C,"endpoint: median survival time, dose: 6.0 mg/kg/injection, schedule: Q01DX009 (ip), vehicle: saline, higher = longer survival",106 % of control
same,T/C,"endpoint: median survival time, dose: 6.25 mg/kg/injection, schedule: Q01DX009 (ip), vehicle: saline, higher = longer survival",111 % of control
same,T/C,"endpoint: median survival time, dose: 12.0 mg/kg/injection, schedule: Q01DX009 (ip), vehicle: saline, higher = longer survival",89 % of control
same,T/C,"endpoint: median survival time, dose: 12.5 mg/kg/injection, schedule: Q01DX009 (ip), vehicle: saline, higher = longer survival",97 % of control
CCCCCCCCCCCCCCCCCC(=O)NN,T/C,"endpoint: median survival time, dose: 200.0 mg/kg/injection, schedule: Q01DX009 (ip), vehicle: Klucel (hydroxypropylcellulose) (HPC), higher = longer survival",120 % of control
